This is an account of results in ChEMBL document CHEMBL1130971, “Endothelin antagonists: evaluation of 2,1,3-benzothiadiazole as a methylendioxyphenyl bioisoster” (Bioorg Med Chem Lett, 1998).

Each structure is given as a SMILES string.

The first assay deals with Endothelin-1 receptor (Rattus norvegicus). Description: pA2 value towards endothelin receptor A was determined as functional ETA antagonism.
Take `COc1ccc(C(=O)/C(Cc2cc(OC)c(OC)c(OC)c2)=C(\C(=O)O)c2ccc3nsnc3c2)cc1`: the Kb is 3.16 nM. Same read-out and setting: as for `COc1ccc(C(=O)/C(Cc2cc(OC)c(OC)c(OC)c2)=C(\C(=O)O)c2ccc3c(c2)OCO3)cc1` [PD-156707 SODIUM], the figure is 25.1 nM.

The target in the next assay is T1, Endothelin-1 receptor (Rattus norvegicus, UniProt P26684).
T1 sequence (P26684 whole entry): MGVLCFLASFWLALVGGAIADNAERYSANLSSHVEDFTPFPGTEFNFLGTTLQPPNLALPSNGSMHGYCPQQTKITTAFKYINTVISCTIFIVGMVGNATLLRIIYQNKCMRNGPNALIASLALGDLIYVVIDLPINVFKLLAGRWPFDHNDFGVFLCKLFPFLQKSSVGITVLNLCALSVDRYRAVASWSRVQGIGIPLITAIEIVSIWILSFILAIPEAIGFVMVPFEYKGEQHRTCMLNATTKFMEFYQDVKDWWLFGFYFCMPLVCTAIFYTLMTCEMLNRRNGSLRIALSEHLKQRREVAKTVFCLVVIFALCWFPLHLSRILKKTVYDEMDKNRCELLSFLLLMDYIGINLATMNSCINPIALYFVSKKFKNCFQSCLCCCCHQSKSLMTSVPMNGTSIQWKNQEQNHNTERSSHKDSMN
Description: Inhibition of [125I]ET1 binding to rat aorta membrane Endothelin A receptor.
`CN(C)c1cccc2c(S(=O)(=O)Nc3ccc4c(c3)OCO4)cccc12` gave an IC50 of 370 nM. `CCCOc1ccc2c(c1)c(-c1ccc3c(c1)OCO3)c(C(=O)O)n2Cc1ccc2nonc2c1` came in with an IC50 of 2500 nM. This IC50 is about 6.8-fold higher than that of the compound before. Same read-out and setting: then `COc1ccc(C2(O)OC(=O)C(c3ccc4nsnc4c3)=C2Cc2cc(OC)c(OC)c(OC)c2)cc1` (stereo not drawn), with 0.3 nM; and `COc1ccc(-c2c(C(=O)O)c(=O)n(Cc3ccc4nsnc4c3)c3c2oc2ccccc23)cc1`, with 390 nM; and `CCCOc1ccc2c(c1)c(-c1ccc(OC)cc1)c(C(=O)O)n2Cc1cc2nsnc2cc1C`, with 160 nM. The same measure, in the same setting: as for `COc1ccc(-c2c(C(=O)O)c(=O)n(Cc3ccc4c(c3)OCO4)c3c2oc2ccccc23)cc1`, the figure is 1300 nM.

For `COc1cc2c(-c3ccc4c(c3)OCO4)c(C(=O)O)n(Cc3ccc4nsnc4c3)c2cc1OC`, the IC50 amounted to 33 nM. On the same count and under the same terms, then `CCCOc1ccc2c(c1)c(-c1ccc3c(c1)OCO3)c(C(=O)O)n2Cc1ccc2c(c1)OCO2`, with 250 nM. Still for that read-out and setting: as for `CCCOc1ccc2c(c1)c(-c1ccc3c(c1)OCO3)c(C(=O)O)n2Cc1ccc2nsnc2c1`, the figure is 97 nM; as for `COc1cc2c(-c3ccc4c(c3)OCO4)c(C(=O)O)n(Cc3ccc4c(c3)OCO4)c2cc1OC`, 150 nM; as for `CCCOc1ccc2c(c1)c(-c1ccc(OC)cc1)c(C(=O)O)n2Cc1ccc2nsnc2c1`, 210 nM.
